Data set [1] has as its system interleukin-2 (IL-2) production in a B cell lymphoma cell line. In words: suppression of interleukin-2 (IL-2) production in a B cell lymphoma cell line. The class given is cell-based. The conditions noted are these: 100 micromolar (μM) concentrations of the compounds, preliminary biological testing. The text has this: In some embodiments, the presently disclosed subject matter provides phainanoid analogs, as well as compounds that can be used as synthetic intermediates in preparing phainanoids and phainanoid analogs. In particular, the presently disclosed phainanoid analogs include the benzofuran-based 4,5-spirocycle with the strained exocyclic olefin motif present in the “western” part of the natural product phainanoids. Given the inclusion of this motif, it is believed that the presently disclosed phainanoid analogs can be useful as novel immunosuppressive agents, e.g., for the treatment of diseases characterized by an aberrant immune response, such as autoimmune and/or inflammatory diseases, as well as during transplant operations.

Regarding `C[C@@]12CCCC=C1[C@@]1(C2)Oc2ccccc2C1=O` [Compound 7], the “immunosuppressive activity (suppression of interleukin-2 (IL-2) production)” value (“immunosuppressive activity” below) in data set [1] is recorded as “complete suppression”.
Regarding `C[C@]1(/C=C2\Oc3ccccc3C2=O)[C@@H](O)CC[C@]2(C)c3ccccc3CC[C@@H]12` [Compound 25], the “immunosuppressive activity” value in data set [1] is “complete suppression”.
Regarding `C[C@]12C[C@@]3(Oc4ccccc4C3=O)C1=CC[C@]1(C)c3ccccc3CC[C@@H]21` [Compound 8], the melting point (usually the temperature of the solid-liquid transition) lay in the range of 174 to 177 °C. Further, the “immunosuppressive activity” value in data set [1] was “complete suppression”.
